The values that follow come from patent publication US20150291645A1, “ISOACTEOSIDE DERIVATIVE AND USE THEREOF” (Sinphar Pharmaceutical Co., Ltd., priority 2014, published 2015).

Assay [1] has as its system Aβ40 degrading enzyme activity in Neuro-2a conditioned medium. Description: Aβ40 degradation in Neuro-2a conditioned medium (Human Aβ1-40 immunoassay). The note with it: 50 μM and 100 μM, 24 hours 37° C., FIG. 5. It counts as biochemical, mouse.
Procedure: Experimental method: 2×10^7 of mouse neuroblastoma cells (Neuro-2a) were placed on a T175 culture medium, and after overnight, the T175 culture medium was replaced with 30 mL of a chemical-defined medium incubating for 24 hours. After 24 hours, the chemical-defined medium incubated with the cells, which was called a conditioned medium, was centrifuged for 5 minutes at 13,000 rpm, and supernatant liquid was obtained. 10 ng of Aβ40 and testing medicine were added to 300 μL of the conditioned medium, and the mixture was reacted at 37° C. for 24 hours. Immunoassay kits (Human Aβ1-40 Immunoassay kits, Cat.KHB3482, Life Technologies) were used to measure the remaining amount of Aβ in each reaction to examine whether the medicine can improve the activity for enzyme in the medium to degrade Aβ. One not adding any testing medicine (i.e. only containing 10 ng of Aβ40) was a control, and the measured level of Aβ was set to 100%. The levels of Aβ after treated by the testing medicine were compared to the control and expressed in percentage. […] The statistical differences between the control and the testing samples were analyzed by Dunnett's multiple comparison test, which “*” represented p<0.05; “**” represented p<0.01; “***” represented p<0.001; and “****” represented p<0.0001.
The test system of assay [2] is β-amyloid peptides (Aβ). Conditions: position of the caffeoyl group (sixth vs fourth), WO 2011/157059 A1; cited from earlier work.

In the case of `O=C(/C=C/c1ccc(O)c(O)c1)OCC1OC(OCCc2ccc(O)c(O)c2)C(O)C(O)C1O` (stereo not drawn) [Sample 9], in assay [1], the “extracellular Aβ40 degradation” value was “could effectively improve extracellular Aβ40 degradation”. With `C[C@@H]1O[C@@H](O[C@@H]2[C@@H](O)[C@H](OCCc3ccc(O)c(O)c3)O[C@H](CO)[C@H]2OC(=O)/C=C/c2ccc(O)c(O)c2)[C@H](O)[C@H](O)[C@H]1O` [acteoside], the “activity of inhibiting β-amyloid peptides (Aβ) accumulation” value in assay [2] is given as “the activity decreased”. As to `C[C@@H]1O[C@@H](O[C@@H]2[C@@H](O)[C@H](OCCc3ccc(O)c(O)c3)O[C@H](COC(=O)/C=C/c3ccc(O)c(O)c3)[C@H]2O)[C@H](O)[C@H](O)[C@H]1O` [isoacteoside], in assay [2], the “activity of inhibiting β-amyloid peptides (Aβ) accumulation” value was “better”.
